Counter-ions that a name gives are not always drawn. Like-named read-outs stand apart in the source and are kept apart here.
What was measured:
GRK2 [1] = target: T1, GRK2 (Homo sapiens, UniProt P25098); assay: GRK2 Inhibition Assay (TR-FRET, Example 1); type: biochemical
T1 sequence (P25098 1-689): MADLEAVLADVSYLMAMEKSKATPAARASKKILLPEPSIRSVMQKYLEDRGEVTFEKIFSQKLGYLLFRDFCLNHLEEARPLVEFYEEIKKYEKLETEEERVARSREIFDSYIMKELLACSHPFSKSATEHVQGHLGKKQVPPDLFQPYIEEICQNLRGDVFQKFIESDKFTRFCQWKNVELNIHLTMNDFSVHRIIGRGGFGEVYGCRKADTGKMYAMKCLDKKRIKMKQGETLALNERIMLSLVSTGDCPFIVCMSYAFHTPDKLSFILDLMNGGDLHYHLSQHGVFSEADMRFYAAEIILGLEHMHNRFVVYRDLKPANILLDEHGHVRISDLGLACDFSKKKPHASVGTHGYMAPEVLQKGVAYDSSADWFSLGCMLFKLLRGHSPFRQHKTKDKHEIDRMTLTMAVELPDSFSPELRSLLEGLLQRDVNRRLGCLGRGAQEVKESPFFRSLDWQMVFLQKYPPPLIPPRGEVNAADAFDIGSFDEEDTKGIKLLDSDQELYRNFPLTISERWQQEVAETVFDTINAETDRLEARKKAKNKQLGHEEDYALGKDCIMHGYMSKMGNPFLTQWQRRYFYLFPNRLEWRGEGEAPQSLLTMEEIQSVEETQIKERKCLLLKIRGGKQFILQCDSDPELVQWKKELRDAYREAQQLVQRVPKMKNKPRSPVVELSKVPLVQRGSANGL
Outline: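 GRK2 (1 nM) pre-incubated 30 min RT with compounds in HEPES/MgCl2/DTT/Tween-20/EGTA buffer, then reacted 90 min RT with 7 μM ATP and 50 nM ULight-TopoIIα substrate. Stopped with EDTA plus Eu anti-TopoIIα antibody; TR-FRET read after 60 min.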

PAXF1657 EV = assay: 7-day cellular proliferation assay (CellTiter-Glo), PAXF1657 EV; type: cell-based
Outline: (§1)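 PAXF1657 isogenic lines (GRK2-overexpressing vs empty vector; CRISPR GRK2 knockout vs non-targeting control clones) seeded 500 cells/well in RPMI1640/10% FBS and treated next day with 10-point dilutions, 30 μM-0.0002 μM final, 0.3% DMSO. Media with compound refreshed after 3 days; viability read by CellTiter-Glo luminescence at day 7.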

PAXF1657 KO Clone #4 = assay: 7-day cellular proliferation assay (CellTiter-Glo), PAXF1657 KO Clone #4; type: cell-based
Outline: as §1

GRK2 [2] = target: T1, GRK2; assay: GRK2 Degradation Assay and Western Blot in PAXF1657 cells; type: cell-based; set-up: endogenous in cells; host or cells: PAXF1657
Outline: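 PAXF1657 cells grown to 70% confluency, then treated with compounds at 0–10 μM for 6 to 24 h at 37 °C. Lysates in PBS with 1% NP40 run on SDS-PAGE. GRK2 protein detected by western blot with β-actin as loading reference, using ECL chemiluminescence.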

[3] = Table 4, Example 1 assay, read-out: Enzymatic GRK2 IC50: Av IC50 GRK2
[4] = proliferation, read-out: GeoMean IC50 (UM) PAXF1657 EV
[5] = proliferation, read-out: GeoMean IC50 (uM) PAXF1657 KO Clone #4
[6] = Conc 0.3 uM, read-out: Degradation Assay - 3 point: Degradation (%)
[7] = Conc 1 uM, read-out: Degradation Assay - 3 point: Degradation (%)
[8] = Conc 3 uM, read-out: Degradation Assay - 3 point: Degradation (%)
[9] = TR-FRET, 7 μM ATP, read-out: Enzymatic GRK2 Assay: IC50 (nM) (Example 1)
[10] = 168 h, 7-day, read-out: 7-day proliferation assay: IC50 GeoMean (uM) [Cell Line: PAXF1657 EV]
[11] = 168 h, 7-day, read-out: 7-day proliferation assay: IC50 GeoMean (uM) [Cell Line: PAXF1657 KO Clone #4]
[12] = 0.3 uM, PAXF1657 EV, 24 hrs, read-out: % GRK2 degradation at 0.3 uM in PAXF1657 EV (24 hrs)
[13] = 1 uM, PAXF1657 EV, 24 hrs, read-out: % GRK2 degradation at 1 uM in PAXF1657 EV (24 hrs)
[14] = 3 uM, PAXF1657 EV, 24 hrs, read-out: % GRK2 degradation at 3 uM in PAXF1657 EV (24 hrs)

Row | Compound | IC50 (GRK2 [1]; [3]) | IC50 (PAXF1657 EV; [4]) | IC50 (PAXF1657 KO Clone #4; [5]) | inhibition at 0.3 µM (GRK2 [2]; [6]) | inhibition at 1 µM (GRK2 [2]; [7]) | inhibition at 3 µM (GRK2 [2]; [8]) | IC50 (GRK2 [1]; [9]) | IC50 (PAXF1657 EV; [10]) | IC50 (PAXF1657 KO Clone #4; [11]) | % GRK2 degradation at 0.1 uM in PAXF1657 EV (24 hrs) (GRK2 [2]; 0.1 uM, PAXF1657 EV, 24 hrs) | inhibition at 0.3 µM (GRK2 [2]; [12]) | inhibition at 1 µM (GRK2 [2]; [13]) | inhibition at 3 µM (GRK2 [2]; [14]) | % GRK2 degradation at 10 uM in PAXF1657 EV (24 hrs) (GRK2 [2]; 10 uM, PAXF1657 EV, 24 hrs) | GRK2 degradation, dose dependence (FIGS. 1A-1D) (GRK2 [2]; 24-hour treatment in PAXF1657 cells) | DC50 (GRK2 [2]; PAXF1657, 24 h, read-out: Degradation Assay - Full Dose Response: IC50 (uM) [cell line: PAXF1657, time point: 24 h])
1 | Cc1ncsc1-c1ccc(CNC(=O)[C@@H]2C[C@@H](O)CN2C(=O)[C@@H](NC(=O)CCCOCCOCCOCCCCCCOc2ccc([C@@H](C)NC(=O)c3cccc(NCc4nnc(-c5ccncn5)n4C)c3)cc2)C(C)(C)C)cc1 [Compound D116] | 6.6 nM | 1.88 µM | 7.48 µM | 15% | 30% | -40% | – | – | – | – | – | – | – | – | – | –
2 | Cn1c(CNc2cccc(C(=O)NCc3cccc(OCCCCCOCCCOCC(=O)Nc4cccc5c4CN(C4CCC(=O)NC4=O)C5=O)c3)c2)nnc1-c1ccncn1 (stereo not drawn) [Compound D64, N-(3-((5-(3-(2-((2-(2,6-dioxopiperidin-3-yl)-1-oxoisoindolin-4-yl)amino)-2-oxoethoxy)propoxy)pentyl)oxy)benzyl)-3-(((4-methyl-5-(pyrimidin-4-yl)-4H-1,2,4-triazol-3-yl)methyl)amino)benzamide] | – | – | – | – | – | – | < 100 nM | > 10 µM | > 10 µM | 26% | 62% | 79% | 83% | 77% | Dose dependent | –
3 | C[C@@H](NC(=O)c1cccc(NCc2nnc(-c3ccncn3)n2C)c1)c1cccc(C(=O)N2CCC(CCCN3CCN(c4ccc5c(c4)CN(C4CCC(=O)NC4=O)C5=O)CC3)CC2)c1 (stereo partly drawn) [Compound D119, N-((1R)-1-(3-(4-(3-(4-(2-(2,6-dioxopiperidin-3-yl)-1-oxoisoindolin-5-yl)piperazin-1-yl)propyl)piperidine-1-carbonyl)phenyl)ethyl)-3-((4-methyl-5-(pyrimidin-4-yl)-4H-1,2,4-triazol-3-yl)methylamino)benzamide hydrochloride] | 16.1 nM | 0.116 µM | 2.73 µM | 90% | 93.7% | 89% | – | – | – | – | – | – | – | – | – | –
4 | C[C@@H](NC(=O)c1cccc(NCc2nnc(-c3ccncn3)n2C)c1)c1cccc(OCCN2CCN(c3ccc4c(c3)CN(C3CCC(=O)NC3=O)C4=O)CC2)c1 (stereo partly drawn) [Compound D128, N-((1R)-1-(3-(2-(4-(2-(2,6-dioxopiperidin-3-yl)-1-oxoisoindolin-5-yl)piperazin-1-yl)ethoxy)phenyl)ethyl)-3-((4-methyl-5-(pyrimidin-4-yl)-4H-1,2,4-triazol-3-yl)methylamino)benzamide] | 16.3 nM | 0.8 µM | > 30 µM | -23.2% | 8.53% | -38.6% | – | – | – | – | – | – | – | – | – | –
5 | Cc1ncsc1-c1ccc(CNC(=O)[C@@H]2C[C@@H](O)CN2C(=O)[C@@H](NC(=O)CCCc2cn(CCCCCCOc3cccc(CNC(=O)c4cccc(NCc5nnc(-c6ccncn6)n5C)c4)c3)nn2)C(C)(C)C)cc1 [Compound D86] | – | – | – | – | – | – | < 100 nM | > 10 µM | > 10 µM | – | – | 16% | 24% | – | – | –
6 | C[C@@H](NC(=O)c1cccc(NCc2nnc(-c3ccncn3)n2C)c1)c1cccc(OCCCCCOCCCOCCNc2cccc3c2CN(C2CCC(=O)NC2=O)C3=O)c1 (stereo partly drawn) [Compound D196, N-((1R)-1-(3-(5-(3-(2-(2-(2,6-dioxopiperidin-3-yl)-1-oxoisoindolin-4-ylamino)ethoxy)propoxy)pentyloxy)phenyl)ethyl)-3-((4-methyl-5-(pyrimidin-4-yl)-4H-1,2,4-triazol-3-yl)methylamino)benzamide] | 23.8 nM | 0.36 µM | > 30 µM | 66.2% | 71.1% | 38.9% | – | – | – | – | – | – | – | – | – | –
7 | Cc1ncsc1-c1ccc(CNC(=O)[C@@H]2C[C@@H](O)CN2C(=O)[C@@H](NC(=O)CCCCCOCCOCCOCCCCCCOc2cccc([C@@H](C)NC(=O)c3cccc(NCc4nnc(-c5ccncn5)n4C)c3)c2)C(C)(C)C)cc1 [Compound D162] | 14.1 nM | 0.49 µM | 11.4 µM | 51% | 72.7% | 72.9% | – | – | – | – | – | – | – | – | – | –
8 | C[C@@H](NC(=O)c1cccc(NCc2nnc(-c3ccncn3)n2C)c1)c1cccc(OCCCCCCOCC(=O)N2CCN(c3cc4c(cc3F)C(=O)N(C3CCC(=O)NC3=O)C4=O)CC2)c1 (stereo partly drawn) [Compound D133, N-((1R)-1-(3-(6-(2-(4-(2-(2,6-dioxopiperidin-3-yl)-6-fluoro-1,3-dioxoisoindolin-5-yl)piperazin-1-yl)-2-oxoethoxy)hexyloxy)phenyl)ethyl)-3-((4-methyl-5-(pyrimidin-4-yl)-4H-1,2,4-triazol-3-yl)methylamino)benzamide] | 9.05 nM | 0.71 µM | > 30 µM | 57.7% | 82.4% | 86.7% | – | – | – | – | – | – | – | – | – | –
9 | Cc1ncsc1-c1ccc(CNC(=O)[C@@H]2C[C@@H](O)CN2C(=O)[C@@H](NC(=O)CCCCCOCCOCCOCCCCCCOc2cccc([C@H](C)NC(=O)c3cccc(NCc4nnc(-c5ccncn5)n4C)c3)c2)C(C)(C)C)cc1 [Compound D78, (2S,4R)-1-((S)-2-(tert-butyl)-22-(3-((S)-1-(3-(((4-methyl-5-(pyrimidin-4-yl)-4H-1,2,4-triazol-3-yl)methyl)amino)benzamido)ethyl)phenoxy)-4-oxo-10,13,16-trioxa-3-azadocosan-1-oyl)-4-hydroxy-N-(4-(4-methylthiazol-5-yl)benzyl)pyrrolidine-2-carboxamide] | – | – | – | – | – | – | < 100 nM | < 1 µM | 1 to 10 µM | – | -12% | -21% | -18% | – | – | –
10 | C[C@@H](NC(=O)c1cccc(NCc2nnc(-c3ccncn3)n2C)c1)c1cccc(OCCCCCCOCCOCC(=O)N2CCN(c3ccc4c(c3)CN(C3CCC(=O)NC3=O)C4=O)CC2)c1 (stereo partly drawn) [Compound D138, N-((1R)-1-(3-(6-(2-(2-(4-(2-(2,6-dioxopiperidin-3-yl)-1-oxoisoindolin-5-yl)piperazin-1-yl)-2-oxoethoxy)ethoxy)hexyloxy)phenyl)ethyl)-3-((4-methyl-5-(pyrimidin-4-yl)-4H-1,2,4-triazol-3-yl)methylamino)benzamide hydrochloride] | 20.2 nM | 0.66 µM | > 30 µM | 85% | 92% | 95% | – | – | – | – | – | – | – | – | – | 0.137 µM
11 | C[C@H](NC(=O)c1cccc(NCc2nnc(-c3ccncn3)n2C)c1)c1ccc(OCCCCCOCCCOCC(=O)Nc2cccc3c2CN(C2CCC(=O)NC2=O)C3=O)cc1 (stereo partly drawn) [Compound D150, N-((1S)-1-(4-((5-(3-(2-((2-(2,6-dioxopiperidin-3-yl)-1-oxoisoindolin-4-yl)amino)-2-oxoethoxy)propoxy)pentyl)oxy)phenyl)ethyl)-3-(((4-methyl-5-(pyrimidin-4-yl)-4H-1,2,4-triazol-3-yl)methyl)amino)benzamide] | > 1000 nM | 27.7 µM | > 30 µM | 44% | 43% | 40% | – | – | – | – | – | – | – | – | – | –
